ChEMBL document CHEMBL1147472, “Design, synthesis, and evaluation of a new class of noncyclic 1,3-dicarbonyl compounds as PPARalpha selective activators” (Bioorg Med Chem Lett, 2004)

What was measured:
[1] = target: T1, Peroxisome proliferator-activated receptor delta (Homo sapiens, UniProt Q03181); test: In vitro transcription activation on human peroxisome proliferator activated receptor-delta (PPAR delta)
T1 sequence (Q03181 whole entry): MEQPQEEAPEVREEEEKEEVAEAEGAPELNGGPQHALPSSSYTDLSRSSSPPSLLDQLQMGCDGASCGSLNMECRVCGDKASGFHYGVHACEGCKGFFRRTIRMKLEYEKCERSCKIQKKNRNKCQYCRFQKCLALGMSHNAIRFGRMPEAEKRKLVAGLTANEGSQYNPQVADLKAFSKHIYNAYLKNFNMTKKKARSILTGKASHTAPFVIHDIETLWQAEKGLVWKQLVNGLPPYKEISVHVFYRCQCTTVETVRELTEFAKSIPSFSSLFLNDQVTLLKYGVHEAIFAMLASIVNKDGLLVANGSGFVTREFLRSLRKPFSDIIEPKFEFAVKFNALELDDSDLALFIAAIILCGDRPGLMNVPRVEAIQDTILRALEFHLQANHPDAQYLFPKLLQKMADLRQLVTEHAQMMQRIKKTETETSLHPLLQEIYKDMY

[2] = target: T2, Peroxisome proliferator-activated receptor gamma (Homo sapiens, UniProt P37231); test: In vitro transcription activation on human peroxisome proliferator activated receptor-gamma (PPAR gamma)
T2 sequence (P37231 whole entry): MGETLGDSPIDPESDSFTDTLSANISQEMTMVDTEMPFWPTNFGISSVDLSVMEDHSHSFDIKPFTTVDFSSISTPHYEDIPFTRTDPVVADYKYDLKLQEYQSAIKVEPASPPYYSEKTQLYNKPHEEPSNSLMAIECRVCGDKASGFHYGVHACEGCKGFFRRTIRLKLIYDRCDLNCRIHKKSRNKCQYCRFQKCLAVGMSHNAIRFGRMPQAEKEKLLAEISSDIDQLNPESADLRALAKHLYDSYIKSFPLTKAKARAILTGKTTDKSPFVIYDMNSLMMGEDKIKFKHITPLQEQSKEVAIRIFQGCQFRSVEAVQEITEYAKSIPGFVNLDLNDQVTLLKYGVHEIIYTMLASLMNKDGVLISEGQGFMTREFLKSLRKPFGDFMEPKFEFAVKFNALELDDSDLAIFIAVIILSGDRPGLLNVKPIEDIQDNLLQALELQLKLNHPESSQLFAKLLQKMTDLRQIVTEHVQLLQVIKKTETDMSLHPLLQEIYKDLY

[3] = target: T3, Peroxisome proliferator-activated receptor alpha (Homo sapiens, UniProt Q07869); test: In vitro transcription activation on human peroxisome proliferator activated receptor-alpha (PPAR alpha); Inactive
T3 sequence (Q07869 whole entry): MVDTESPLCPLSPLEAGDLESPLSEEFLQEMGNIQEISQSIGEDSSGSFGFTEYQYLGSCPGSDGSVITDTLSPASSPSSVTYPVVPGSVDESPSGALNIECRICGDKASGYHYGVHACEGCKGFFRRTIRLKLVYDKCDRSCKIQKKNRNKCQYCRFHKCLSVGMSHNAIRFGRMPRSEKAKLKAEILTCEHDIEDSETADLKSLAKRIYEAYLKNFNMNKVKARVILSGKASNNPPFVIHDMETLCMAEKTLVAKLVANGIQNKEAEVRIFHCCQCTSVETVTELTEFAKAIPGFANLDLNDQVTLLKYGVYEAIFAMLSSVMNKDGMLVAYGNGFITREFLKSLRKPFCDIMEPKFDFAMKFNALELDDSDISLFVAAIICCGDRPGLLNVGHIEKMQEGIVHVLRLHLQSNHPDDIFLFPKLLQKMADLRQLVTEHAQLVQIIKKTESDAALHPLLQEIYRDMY

Mus musculus [4] = test: In vivo effect on blood glucose level in mice at a dose of 20 mg/kg by oral administration after two week; assay type: functional
[5] = target: T4, Peroxisome proliferator-activated receptor alpha (Homo sapiens) (UniProt Q07869); test: (§1) In vitro transcription activation on human peroxisome proliferator activated receptor-alpha (PPAR alpha)
T4 sequence (whole entry): T3 sequence (Q07869 whole entry)

[6] = target: T3, Peroxisome proliferator-activated receptor alpha; test: as §1
[7] = target: T1, Peroxisome proliferator-activated receptor delta; test: In vitro transcriptional activation by human peroxisome proliferator activated receptor-delta (PPAR delta; Inactive
[8] = target: T2, Peroxisome proliferator-activated receptor gamma
[9] = target: T1, Peroxisome proliferator-activated receptor delta; test: In vitro transcription activation on human peroxisome proliferator activated receptor-delta (PPAR delta); Inactive
Mus musculus [10] = test: In vivo effect on blood glucose level in mice at a dose of 30 mg/kg by oral administration after two week; assay type: functional
Mus musculus [11] = test: In vivo effect on blood glucose level in mice at the dose of 5 mg/kg by oral administration after two week; assay type: functional
Mus musculus [12] = test: In vivo effect on blood glucose level in mice at a dose of 10 mg/kg by oral administration after two week; assay type: functional

Compound	EC50 [1]	EC50 [2]	EC50 [3]	Max response [5]	EC50 [6]	EC50 [9]	other results
O=C(O)C(Cc1ccc(OCCOc2ccc3c(c2)CCCC3)cc1)C(=O)O	4.68 µM	2.11 µM	Not Active				
NC(=O)C(Cc1ccc(OCCOc2ccc3ccccc3c2)cc1)C(=O)O (configuration not stated)	2.63 µM	3.02 µM		213%	0.25 µM		Reduction (Mus musculus [4]): 42.22%
O=C(O)C(Cc1ccc(OCCOc2ccc3ccccc3c2)cc1)C(=O)O			Not Active				EC50 [7]: Not Active; EC50 [8]: Not Active
CC1(C)CCC(C)(C)c2cc(OCCOc3ccc(CC(C(N)=O)C(=O)O)cc3)ccc21 (configuration not stated)			Not Active			Not Active	EC50 [8]: Not Active
Cc1oc(-c2ccccc2)nc1CCOc1ccc(CC2C(=O)NOC2=O)cc1 (configuration not stated) [REGLITAZAR]						Not Active	
NC(=O)C(Cc1ccc(OCCOc2ccc3c(c2)NCCC3)cc1)C(=O)O (configuration not stated)	3.62 µM	2.88 µM		210%	0.14 µM		
COC(=O)C(Cc1ccc(OCCOc2ccc3c(c2)NCCC3)cc1)C(=O)O (configuration not stated)	3.09 µM	3.8 µM		207%	0.09 µM		
COC(=O)C(Cc1ccc(OCCOc2ccc3c(c2)C(C)(C)CCC3(C)C)cc1)C(=O)O (configuration not stated)		0.09 µM	Not Active			Not Active	
COC(=O)C(Cc1ccc(OCCOc2ccc3c(c2)C(C)(C)CCC3(C)C)cc1)C(N)=O (configuration not stated)		0.83 µM	Not Active			Not Active	
CCCCCCCCCCCCCCC(Br)C(=O)O (configuration not stated)	3.72 µM						
COC(=O)C(Cc1ccc(OCCOc2ccc3c(c2)CCCC3)cc1)C(N)=O (configuration not stated)		3.43 µM	Not Active			Not Active	
COC(=O)C(Cc1ccc(OCCOc2ccc3c(c2)C(C)(C)CCC3(C)C)cc1)C(=O)OC		0.15 µM	Not Active			Not Active	
COC(=O)C(Cc1ccc(OCCOc2ccc3c(c2)CCCC3)cc1)C(=O)O (configuration not stated)	2.45 µM	0.69 µM	Not Active				
Cc1cccc(Nc2cc(Cl)nc(SCC(=O)O)n2)c1C [PIRINIXIC ACID]				100%			EC50 [8]: Not Active
COC(=O)C(Cc1ccc(OCCOc2ccc3ccccc3c2)cc1)C(=O)O (configuration not stated)	1.05 µM	1.12 µM		264%	0.044 µM		
COC(=O)C(Cc1ccc(OCCOc2ccc3c(c2)CCCC3)cc1)C(=O)OC	3.31 µM	1.5 µM		210%	0.03 µM		Reduction (Mus musculus [10]): 38.15%
O=C(O)C(Cc1ccc(OCCOc2ccc3c(c2)NCCC3)cc1)C(=O)O			Not Active			Not Active	EC50 [8]: Not Active
COC(=O)C(Cc1ccc(OCCOc2ccc3c(c2)NCCC3)cc1)C(=O)OC	3.16 µM	3.16 µM		215%	0.17 µM		
CC1(C)CCC(C)(C)c2cc(OCCOc3ccc(CC(C(=O)O)C(=O)O)cc3)ccc21		2.05 µM	Not Active			Not Active	
CN(CCOc1ccc(CC2SC(=O)NC2=O)cc1)c1ccccn1 (configuration not stated) [ROSIGLITAZONE]							Reduction (Mus musculus [11]): 62.96%
COC(=O)C(Cc1ccc(OCCOc2ccc3ccccc3c2)cc1)C(=O)OC	1.27 µM	0.53 µM		264%	0.07 µM		Reduction (Mus musculus [12]): 35.08%; Reduction (Mus musculus [10]): 46.76%
